Experimental data published in patent US6919317B2, “Pharmaceutical composition comprising squalene epoxidase inhibitor and macrolide immunomodulator” (priority 2000, dated 2005).

Legend:
Format in all cases: cell-based
Candida albicans = experiment: NCCLS broth dilution combination study in yeast (modified M27-T), Candida albicans isolate; conditions: for Antifungal activity of test compound alone: C. albicans isolate; for Interaction with fluconazole, C. albicans / Interaction with terbinafine, C. albicans: interpretation of FICI, MIC = 80% inhibition of growth, 48 hours; for Interaction with terbinafine, C. albicans: 37°, pH 7.0, isolate susceptible to both drugs
Protocol: (§1) Combination studies are performed with Candida species, using the NCCLS standard assay (National Committee for Clinical Laboratory Standards [1995], Reference method for broth dilution antifungal susceptibility testing of yeasts (Tentative Standard M27-T, NCCL, Villanova, Pa., U.S.A.), modified as follows: the assay is effected in RPMI 1640 medium without NaHCO3 but with L-glutamine buffered with MOPS at pH 7.0 at 37°. The inoculum is 2.5×10^3 cfu/ml. Incubation times are 48 hours. The MIC is defined as the lowest drug concentration causing 80% inhibition of fungal growth.
(§2) The reference test compound (either terbinafine or fluconazole) is tested in a full concentration range in the absence or presence of the other test drug at 1, 2, 4, and 8 μg/ml.
(§3) Interaction between the drugs is analysed by calculation of the Fractional Inhibitory Concentration Index (FICI), defined as: FICI=[(MIC A in combination)/MIC A]+[MIC B in combination]/MIC B]
(§4) Interpretation of FICI in terms of interaction between the two drugs is as follows: FICI=0.5: synergy; <0.5<FICI=1: additive; 1<FICI=2: indifferent; 2<FICI: antagonism (in practical terms, synergy by this definition means that the MICs of both drugs are reduced by at least 2 dilution steps when used in combination).
(§5) The ability of the four test compounds 33-epichloro,33-desoxyascomycin, 5,6-dehydroascomycin, ascomycin and tacrolimus to influence the antifungal activity of terbinafine and fluconazole was examined in a Candida albicans isolate susceptible to both drugs, and in one isolate of Candida krusei which is resistant to terbinafine and poorly responsive to fluconazole.

Candida krusei = experiment: NCCLS broth dilution combination study in yeast (modified M27-T), Candida krusei isolate; conditions: for Antifungal activity of test compound alone: C. krusei isolate; for Interaction with terbinafine as reference compound (in words): against Candida krusei; for Interaction with fluconazole, C. krusei / Interaction with terbinafine, C. krusei: interpretation of FICI, MIC = 80% inhibition of growth, 48 hours; for Interaction with fluconazole, C. krusei: isolate poorly responsive to fluconazole; for Interaction with terbinafine, C. krusei: isolate resistant to terbinafine
Protocol: as §1, §2, §3, §4, §5

[1] = test system: Microsporum canis (strain NFI 5167); experiment: Checkerboard combination study in dermatophyte, modified NCCLS microdilution M38-P; conditions: for MIC single drug: MIC = lowest concentration causing 80% inhibition of fungal growth; for MIC single drug / MIC combination: unit assumed; for MIC combination: terbinafine hydrochloride combined with 33-epichloro,33-desoxyascomycin, MIC = 80% inhibition
Protocol: Minimum Inhibitory Concentrations (MIC) against dermatophytes are determined in 96-well assay trays by a modification of the NCCLS microdilution procedure M38-P (National Committee for Clinical Laboratory Standards, Reference method for broth antifungal susceptibility testing of conidium-forming filamentous fungi; NCCLS document M38-P; NCCLS, Wayne, Pa., USA [1998]), as detailed in H. A. Norris et al., J. Am. Acad. Dermatol. 40 [1999] S9-S13). The MIC is defined as the lowest drug concentration causing 80% inhibition of fungal growth.
Combination studies are performed in a checkerboard design using the above assay to provide a matrix of all possible dose combination of the two drugs within the required concentration range. The matrix structure is provided by the microtiter trays used for the assay. The terbinafine dilution series is arranged on the y-axis (in columns) and the partner drug on the x-axis (in rows). In each row, well no. 1 contains the sterility control, well no. 2 contains terbinafine hydrochloride alone, wells no. 3 to no. 11 contain the dilution series of the partner drug 33-epichloro,33-desoxyascomycin, and well no. 12 contains the growth control. In each column, well A contains the partner drug alone and wells B to H contain the dilution series of terbinafine hydrochloride.
The nature of the interaction between the two drugs is defined quantitatively by means of the Fractional Inhibitory Concentration Index (FICI), which is calculated by the following formula: FICI=[(MIC A in combination)/MIC A]+[(MIC B in combination)/MIC B].
Interpretation of the FICI is: • ≦0.5: synergy; • >0.5 but ≦1: additive; • >1 but ≦2: indifferent; • >2: antagonism.
In practice, synergy calculated in this way is equivalent to a reduction of at least 2 dilution steps in the MIC of each drug when they are combined.

SMILES | Antifungal activity of test compound alone (Candida albicans) | Interaction with fluconazole, C. albicans (Candida albicans) | Interaction with terbinafine, C. albicans (Candida albicans) | Antifungal activity of test compound alone (Candida krusei) | Interaction with terbinafine as reference compound (in words) (Candida krusei) | Interaction with fluconazole, C. krusei (Candida krusei) | Interaction with terbinafine, C. krusei (Candida krusei) | FICI ([1]; combination with terbinafine hydrochloride) | Interpretation (of FICI) ([1]; combination with terbinafine hydrochloride, ≦0.5: synergy) | MIC single drug [1] [µg/mL] | MIC combination [1] [µg/mL] | Interaction of fluconazole with the macrolide test compounds (in words) (Candida albicans; Candida albicans, statement covers both Candida isolates) | Interaction of fluconazole with the macrolide test compounds (in words) (Candida krusei; Candida krusei, statement covers both Candida isolates)
CC[C@@H]1/C=C(\C)C[C@H](C)C[C@H](OC)[C@H]2O[C@@](O)(C(=O)C(=O)N3C=CCC[C@H]3C(=O)O[C@H](/C(C)=C/[C@@H]3CC[C@@H](O)[C@H](OC)C3)[C@H](C)[C@@H](O)CC1=O)[C@H](C)C[C@@H]2OC [5,6-Dehydro-ascomycin, {1R,5Z,9S,12S-[1E-(1R,3R,4R)],13R,14S,17R,18E,21S,23S,24R,25S,27R}-17-ethyl-1,14-dihydroxy-12-[2-(4-hydroxy-3-methoxycyclohexyl)-1-methylvinyl]-23,25-dimethoxy-13,19,21,27-tetramethyl-11,28-dioxa-4-azatricyclo[22.3.1.0(4,9)]octacos-5,18-diene-2,3,10,16-tetraone] | completely inactive | − (−: indifferent/antagonistic) | + (+: additive) | completely inactive | strongly positive | − (−: indifferent/antagonistic) | − (−: indifferent/antagonistic) |  |  |  |  |  | 
CC[C@@H]1/C=C(\C)C[C@H](C)C[C@H](OC)[C@H]2O[C@@](O)(C(=O)C(=O)N3CCCC[C@H]3C(=O)O[C@H](/C(C)=C/[C@@H]3CC[C@H](Cl)[C@H](OC)C3)[C@H](C)[C@@H](O)CC1=O)[C@H](C)C[C@@H]2OC [33-Epichloro,33-desoxy-ascomycin, {[1E-(1R,3R,4S)]1R,9S,12S, 13R,14S,17R,18E, 21S,23S,24R,25S,27R}-12-[2-(4-chloro-3-methoxycyclohexyl)-1-methylvinyl]-17-ethyl-1,14-dihydroxy-23,25-dimethoxy-13,19,21,27-tetramethyl-11,28,dioxa-4-azatricyclo [22.3.1.0(4,9)]octacos-18-ene-2,3,10,16-tetraone] | completely inactive | − (−: indifferent/antagonistic) | + (+: additive) | completely inactive | strongly positive | − (−: indifferent/antagonistic) | − (−: indifferent/antagonistic) | 0.28 | synergy | 64 | 16 |  | 
CC[C@@H]1/C=C(\C)C[C@H](C)C[C@H](OC)[C@H]2O[C@@](O)(C(=O)C(=O)N3CCCC[C@H]3C(=O)O[C@H](/C(C)=C/[C@@H]3CC[C@@H](O)[C@H](OC)C3)[C@H](C)[C@@H](O)CC1=O)[C@H](C)C[C@@H]2OC [Ascomycin, ascomycin] | completely inactive | − (−: indifferent/antagonistic) | + (+: additive) | completely inactive | powerfully synergistic | − (−: indifferent/antagonistic) | (* ((*: synergy) |  |  |  |  |  | 
C=CC[C@@H]1/C=C(\C)C[C@H](C)C[C@H](OC)[C@H]2O[C@@](O)(C(=O)C(=O)N3CCCC[C@H]3C(=O)O[C@H](/C(C)=C/[C@@H]3CC[C@@H](O)[C@H](OC)C3)[C@H](C)[C@@H](O)CC1=O)[C@H](C)C[C@@H]2OC [Tacrolimus, tacrolimus] | completely inactive | − (−: indifferent/antagonistic) | + (+: additive) | completely inactive | powerfully synergistic | − (−: indifferent/antagonistic) | (* ((*: synergy) |  |  |  |  |  | 
OC(Cn1cncn1)(Cn1cncn1)c1ccc(F)cc1F [fluconazole] |  |  |  |  |  |  |  |  |  |  |  | no potent synergy | no potent synergy
CN(C/C=C/C#CC(C)(C)C)Cc1cccc2ccccc12 [terbinafine, (E)-N-methyl-N-(1-naphthylmethyl)-6,6-dimethylhept-2-en-4-amin] |  |  |  |  |  |  |  |  |  | 0.031 | 0.001 |  | 
